Consider three compounds from patent US20250353891A1 (MEDIMMUNE LIMITED, priority 2022, published 2025).

Experiment [1] has as its target human GLP-1 receptor (hGLP-1R) (Homo sapiens, UniProt P43220). The experiment in a line: cAMP production (HTRF) in CHO cells expressing hGLP-1R. Also on record: expressed in transfected cells. To be noted: for EC50: Table 6, peptides modified at position 17, cAMP in CHO hGLP-1R cells, geometric mean, read-out: hGLP-1R EC50; for % Relative Potency Ratio: Table 6, % GLP-1R activity relative to GLP-1 / % GlucR activity relative to glucagon. The format is cell-based. A digest of the protocol: (§1)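 Read-out: HTRF cAMP (anti-cAMP cryptate donor, cAMP-d2 acceptor in conjugate/lysis buffer), converted to % Delta F and fitted by 4-parameter logistic for EC50. Cell densities were 1×10^5 cells/mL (hGLP-1R) or 2×10^5 cells/mL (hGCGR). Stimulation lasted 30 min at room temperature.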

For experiment [2], the target named is human glucagon receptor (hGCGR) (Homo sapiens, UniProt P47871). Put plainly: cAMP production (HTRF) in CHO cells expressing hGCGR. The format is cell-based. Also on record: expressed in transfected cells. To be noted: Table 6, peptides modified at position 17; cAMP in CHO hGCGR cells; geometric mean; read-out: hGluc-R EC50. A digest of the protocol:
as §1

Starred links: 1 amine or outer side, 2 acyl side, 3 side chain; linkers in the order of their positions; H or OH if unused. Non-standard residues stand in square brackets, D forms with d. Residues, ends and D or L forms follow the SMILES beside them. Groups on a side chain read outwards from the residue. *: point of attachment. PEG12 = NCCOCCOCCOCCOCCOCCOCCOCCOCCOCCOCCOCCOCCC(=O)O; C20 diacid = O=C(O)CCCCCCCCCCCCCCCCCCC(=O)*; Dip = N[C@H](C(=O)O)C(c1ccccc1)c1ccccc1; γGlu = O=C(O)[C@H](CCC(=O)[*:2])N[*:1]; Stearoyl = CCCCCCCCCCCCCCCCCC(=O)*; αMeF = C[C@](N)(Cc1ccccc1)C(=O)O; AEEA = NCCOCCOCC(=O)O; Aib = CC(C)(N)C(=O)O

human glucagon receptor (hGCGR), sequence (P47871 26-477): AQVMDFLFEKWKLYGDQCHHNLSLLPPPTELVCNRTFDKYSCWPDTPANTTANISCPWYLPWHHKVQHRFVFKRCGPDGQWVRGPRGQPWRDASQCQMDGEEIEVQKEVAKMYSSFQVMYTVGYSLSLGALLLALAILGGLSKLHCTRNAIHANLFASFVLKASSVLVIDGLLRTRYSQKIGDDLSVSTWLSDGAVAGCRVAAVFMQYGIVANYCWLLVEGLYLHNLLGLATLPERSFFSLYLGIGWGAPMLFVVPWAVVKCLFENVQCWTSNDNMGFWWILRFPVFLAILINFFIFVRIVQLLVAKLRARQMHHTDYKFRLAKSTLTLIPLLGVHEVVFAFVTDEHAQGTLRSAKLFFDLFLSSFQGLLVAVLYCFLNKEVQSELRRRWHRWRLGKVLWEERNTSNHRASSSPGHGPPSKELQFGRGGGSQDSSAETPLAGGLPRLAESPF
human GLP-1 receptor (hGLP-1R), sequence (P43220 24-463): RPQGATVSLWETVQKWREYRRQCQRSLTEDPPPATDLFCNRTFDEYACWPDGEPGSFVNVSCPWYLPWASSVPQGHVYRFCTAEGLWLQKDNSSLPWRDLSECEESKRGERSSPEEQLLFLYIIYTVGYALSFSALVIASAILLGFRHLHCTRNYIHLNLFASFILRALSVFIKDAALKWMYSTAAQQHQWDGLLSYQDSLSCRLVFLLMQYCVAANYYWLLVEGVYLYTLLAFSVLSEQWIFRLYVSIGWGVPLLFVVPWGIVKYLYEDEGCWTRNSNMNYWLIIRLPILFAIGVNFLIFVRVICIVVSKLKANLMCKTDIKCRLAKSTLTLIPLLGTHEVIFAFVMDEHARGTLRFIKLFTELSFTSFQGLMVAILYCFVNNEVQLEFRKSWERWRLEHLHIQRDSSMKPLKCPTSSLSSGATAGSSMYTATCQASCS

For `CC[C@H](C)[C@H](NC(=O)C(C)(C)NC(=O)[C@H](CCC(N)=O)NC(=O)[C@@H](NC(=O)[C@](C)(Cc1ccccc1)NC(=O)[C@H](CC(=O)O)NC(=O)[C@H](CCC(N)=O)NC(=O)[C@H](C)NC(=O)[C@H](C)NC(=O)[C@H](CCCCNC(=O)COCCOCCNC(=O)COCCOCCNC(=O)CC[C@H](NC(=O)CC[C@H](NC(=O)CCCCCCCCCCCCCCCCCCC(=O)O)C(=O)O)C(=O)O)NC(=O)[C@H](CO)NC(=O)[C@H](CC(=O)O)NC(=O)[C@H](CC(C)C)NC(=O)[C@](C)(Cc1ccccc1)NC(=O)[C@H](CCCCN)NC(=O)[C@H](CO)NC(=O)[C@@H](NC(=O)[C@H](CC(=O)O)NC(=O)[C@H](CO)NC(=O)[C@@H](NC(=O)[C@](C)(Cc1ccccc1)NC(=O)[C@H](CO)NC(=O)CNC(=O)[C@H](Cc1c[nH]cn1)NC(=O)C(C)(C)NC(=O)[C@@H](N)Cc1c[nH]cn1)[C@@H](C)O)C(C)C)C(C)C)C(=O)N[C@@H](C)C(=O)N[C@@H](CC(N)=O)C(=O)N[C@H](C(N)=O)[C@@H](C)O` [Peptide 25] (H-H[Aib]HGS[αMeF]TSDVSK[αMeF]LDSK([AEEA-AEEA-γGlu-γGlu-C20 diacid])AAQD[αMeF]VQ[Aib]IANT-NH2), in experiment [1], the EC50 was 0.726 nM and the “% Relative Potency Ratio” value is 3.6. Further, the EC50 in experiment [2] amounted to 1.31 nM.

`CCCCCCCCCCCCCCCCCC(=O)N[C@@H](CCC(=O)N[C@@H](CCC(=O)NCCOCCOCCOCCOCCOCCOCCOCCOCCOCCOCCOCCOCCC(=O)NCCCC[C@H](NC(=O)[C@H](CO)NC(=O)[C@H](CC(=O)O)NC(=O)[C@H](CC(C)C)NC(=O)[C@@H](NC(=O)[C@H](CCCCN)NC(=O)[C@H](CO)NC(=O)[C@@H](NC(=O)[C@H](CC(=O)O)NC(=O)[C@H](CO)NC(=O)[C@@H](NC(=O)[C@](C)(Cc1ccccc1)NC(=O)[C@H](CO)NC(=O)CNC(=O)[C@H](CCC(N)=O)NC(=O)[C@H](CO)NC(=O)[C@@H](N)Cc1c[nH]cn1)[C@@H](C)O)C(C)C)C(c1ccccc1)c1ccccc1)C(=O)N[C@@H](C)C(=O)N[C@@H](C)C(=O)N[C@@H](CCC(N)=O)C(=O)N[C@@H](CC(=O)O)C(=O)N[C@@](C)(Cc1ccccc1)C(=O)N[C@H](C(=O)N[C@@H](CCC(=O)O)C(=O)NC(C)(C)C(=O)N[C@H](C(=O)N[C@H](C(=O)N[C@@H](CC(N)=O)C(=O)N[C@H](C(N)=O)[C@@H](C)O)[C@@H](C)CC)[C@@H](C)CC)C(C)C)C(=O)O)C(=O)O` [Peptide 58] (H-HSQGS[αMeF]TSDVSK[Dip]LDSK([PEG12-γGlu-γGlu-Stearoyl])AAQD[αMeF]VE[Aib]IINT-NH2; N-terminus assumed): in experiment [1], the EC50 was 0.0039 nM and the “% Relative Potency Ratio” value was found to be 5.7. In experiment [2], the EC50 was 0.0113 nM.

For the compound `CC(C)C[C@H](NC(=O)[C@H](Cc1c[nH]c2ccccc12)NC(=O)[C@H](CCCNC(=N)N)NC(=O)[C@@H](NC(=O)[C@H](Cc1ccccc1)NC(=O)[C@H](CC(=O)O)NC(=O)[C@H](CCCNC(=N)N)NC(=O)[C@H](C)NC(=O)[C@H](CCCNC(=N)N)NC(=O)[C@H](CCCCNC(=O)COCCOCCNC(=O)COCCOCCNC(=O)CC[C@H](NC(=O)CCCCCCCCCCCCCCCCCCC(=O)O)C(=O)O)NC(=O)[C@@H](NC(=O)[C@H](CC(=O)O)NC(=O)[C@H](CC(C)C)NC(=O)[C@](C)(Cc1ccccc1)NC(=O)[C@H](CCCCN)NC(=O)[C@H](CO)NC(=O)[C@@H](NC(=O)[C@H](CC(=O)O)NC(=O)[C@H](CO)NC(=O)[C@@H](NC(=O)[C@H](Cc1ccccc1)NC(=O)[C@@H](NC(=O)CNC(=O)[C@H](CCC(N)=O)NC(=O)C(C)(C)NC(=O)[C@@H](N)Cc1c[nH]cn1)[C@@H](C)O)[C@@H](C)O)C(C)C)[C@@H](C)O)C(C)C)C(=O)N[C@@H](CC(C)C)C(=O)NC(C)(C)C(=O)N[C@@H](CCC(=O)O)C(N)=O` [Peptide 511] (H-H[Aib]QGTFTSDVSK[αMeF]LDTK([AEEA-AEEA-γGlu-C20 diacid])RARDFVRWLL[Aib]E-NH2; N-terminus assumed), the EC50 in experiment [1] is 0.118 nM; in experiment [2] it was 0.14 nM. Also, the “% Relative Potency Ratio” value in experiment [1] is on record as 2.4.
